# Data: US20050239656A1, “Pyridine compounds or salts thereof and herbicides containing the same” (priority 2002, published 2005)
# Tested on: barnyardgrass
# Test: Test Example 1: foliage treatment, upland pot test
# Assay type: in vivo, Echinochloa crus-galli L.
# Settings: active ingredient 500 g/ha, observed 18th to 23rd day, 0 = non-treated, 100 = complete kill
# In short: (§1)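 Crops and weeds were sown in upland soil pots and sprayed post-emergence at set leaf stages (soybean 0.1–0.4, wheat 1.3–2.4, rice 1.2–2.6, barnyardgrass 1.3–2.8). Formulated compound was applied in 500 L/ha water with 0.1% spreader. Growth control (0–100%) was rated visually 18–23 days later.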
row,SMILES,Growth controlling degree (%) Barnyardgrass
1,CC(C)C(c1cnccc1C(F)(F)F)N(C)C(=O)CC1Cc2ccccc2C1 (stereo not shown) [I-191],70%
2,CC(C)C(c1cnccc1C(F)(F)F)N(C)S(=O)(=O)c1ccc(F)cc1F (racemic) [I-127],70%

# Tested on: crabgrass
# Test: Test Example 1: foliage treatment, upland pot test
# Assay type: in vivo, Digitaria sanguinalis L.
# Settings: active ingredient 500 g/ha, observed 18th to 23rd day, 0 = non-treated, 100 = complete kill
row,SMILES,Growth controlling degree (%) Crabgrass
1,CC(C)C(c1cnccc1C(F)(F)F)N(C)C(=O)CC1Cc2ccccc2C1 (stereo not shown) [I-191],70%
2,CC(C)C(c1cnccc1C(F)(F)F)N(C)S(=O)(=O)c1ccc(F)cc1F (racemic) [I-127],95%

# Tested on: green foxtail
# Test: Test Example 1: foliage treatment, upland pot test
# Assay type: in vivo, Setaria viridis L.
# Settings: active ingredient 500 g/ha, observed 18th to 23rd day, 0 = non-treated, 100 = complete kill
row,SMILES,Growth controlling degree (%) Green foxtail
1,CC(C)C(c1cnccc1C(F)(F)F)N(C)C(=O)CC1Cc2ccccc2C1 (stereo not shown) [I-191],80%
2,CC(C)C(c1cnccc1C(F)(F)F)N(C)S(=O)(=O)c1ccc(F)cc1F (racemic) [I-127],50%

# Tested on: redroot pigweed
# Test: Test Example 1: foliage treatment, upland pot test
# Assay type: in vivo, Amaranthus retroflexus L.
# Settings: active ingredient 500 g/ha, observed 18th to 23rd day, 0 = non-treated, 100 = complete kill
row,SMILES,Growth controlling degree (%) Redroot pigweed
1,CC(C)C(c1cnccc1C(F)(F)F)N(C)C(=O)CC1Cc2ccccc2C1 (stereo not shown) [I-191],70%
2,CC(C)C(c1cnccc1C(F)(F)F)N(C)S(=O)(=O)c1ccc(F)cc1F (racemic) [I-127],20%

# Tested on: prickly sida
# Test: Test Example 1: foliage treatment, upland pot test
# Assay type: in vivo, Sida spinosa L.
# Settings: active ingredient 500 g/ha, observed 18th to 23rd day, 0 = non-treated, 100 = complete kill
row,SMILES,Growth controlling degree (%) Prickly sida
1,CC(C)C(c1cnccc1C(F)(F)F)N(C)C(=O)CC1Cc2ccccc2C1 (stereo not shown) [I-191],80%
2,CC(C)C(c1cnccc1C(F)(F)F)N(C)S(=O)(=O)c1ccc(F)cc1F (racemic) [I-127],70%

# Tested on: velvetleaf
# Test: Test Example 1: foliage treatment, upland pot test
# Assay type: in vivo, Abutilon theophrasti MEDIC.
# Settings: active ingredient 500 g/ha, observed 18th to 23rd day, 0 = non-treated, 100 = complete kill
row,SMILES,Growth controlling degree (%) Velvetleaf
1,CC(C)C(c1cnccc1C(F)(F)F)N(C)C(=O)CC1Cc2ccccc2C1 (stereo not shown) [I-191],80%
2,CC(C)C(c1cnccc1C(F)(F)F)N(C)S(=O)(=O)c1ccc(F)cc1F (racemic) [I-127],60%

# Tested on: rice
# Test: Test Example 1: foliage treatment, upland pot test
# Assay type: in vivo, Oryza sativa L.
# Settings: crop, active ingredient 500 g/ha, observed 18th to 23rd day, 0 = non-treated, 100 = complete kill
# In short: as §1
row,SMILES,Growth controlling degree (%) Rice
1,CC(C)C(c1cnccc1C(F)(F)F)N(C)C(=O)CC1Cc2ccccc2C1 (stereo not shown) [I-191],20%
2,CC(C)C(c1cnccc1C(F)(F)F)N(C)S(=O)(=O)c1ccc(F)cc1F (racemic) [I-127],30%

# Tested on: wheat
# Test: Test Example 1: foliage treatment, upland pot test
# Assay type: in vivo, Triticum spp.
# Settings: crop, active ingredient 500 g/ha, observed 18th to 23rd day, 0 = non-treated, 100 = complete kill
# In short: as §1
row,SMILES,Growth controlling degree (%) wheat
1,CC(C)C(c1cnccc1C(F)(F)F)N(C)C(=O)CC1Cc2ccccc2C1 (stereo not shown) [I-191],10%
2,CC(C)C(c1cnccc1C(F)(F)F)N(C)S(=O)(=O)c1ccc(F)cc1F (racemic) [I-127],0%

# Tested on: corn
# Test: Test Example 1: foliage treatment, upland pot test
# Assay type: in vivo, Zea mays L.
# Settings: crop, active ingredient 500 g/ha, observed 18th to 23rd day, 0 = non-treated, 100 = complete kill
# In short: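 Corn seeds were sown in upland field soil held in a 1/170,000 ha pot and grown to the 2.1 to 3.2 leaf stage. A wettable powder or emulsifiable concentrate of the test compound was diluted with water at 500 L/ha, given 0.1% (v/v) agricultural spreader, and sprayed onto the foliage with a small sprayer. Growth controlling degree (%) was scored visually 18th to 23rd days later, from 0 (non-treated) to 100 (complete kill).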
row,SMILES,Growth controlling degree (%) Corn
1,CC(C)C(c1cnccc1C(F)(F)F)N(C)C(=O)CC1Cc2ccccc2C1 (stereo not shown) [I-191],60%
2,CC(C)C(c1cnccc1C(F)(F)F)N(C)S(=O)(=O)c1ccc(F)cc1F (racemic) [I-127],40%

# Tested on: soybean
# Test: Test Example 1: foliage treatment, upland pot test
# Assay type: in vivo, Glycine max Merr.
# Settings: crop, active ingredient 500 g/ha, observed 18th to 23rd day, 0 = non-treated, 100 = complete kill
# In short: as §1
row,SMILES,Growth controlling degree (%) Soybean
1,CC(C)C(c1cnccc1C(F)(F)F)N(C)C(=O)CC1Cc2ccccc2C1 (stereo not shown) [I-191],50%
2,CC(C)C(c1cnccc1C(F)(F)F)N(C)S(=O)(=O)c1ccc(F)cc1F (racemic) [I-127],60%

# Tested on: barnyardgrass
# Test: Test Example 2: soil surface treatment, upland pot test
# Assay type: in vivo, Echinochloa crus-galli L.
# Settings: active ingredient 500 g/ha, observed 20th to 28th day
# In short: (§2)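 Visual growth-control ratings (0 = untreated, 100 = complete kill) were taken 20–28 days after soil surface application. The spray was made one day post-sowing in upland soil pots, using formulated compound diluted with water at 1,500 L/ha at a set active ingredient rate.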
row,SMILES,Growth controlling degree (%) Barnyardgrass
1,CC(C)C(c1cnccc1C(F)(F)F)N(C)C(=O)CC1Cc2ccccc2C1 (stereo not shown) [I-191],100%
2,CC(C)C(c1cnccc1C(F)(F)F)N(C)S(=O)(=O)c1ccc(F)cc1F (racemic) [I-127],100%

# Tested on: crabgrass
# Test: as above
# Assay type: in vivo, Digitaria sanguinalis L.
# Settings: active ingredient 500 g/ha, observed 20th to 28th day
# In short: as §2
row,SMILES,Growth controlling degree (%) Crabgrass
1,CC(C)C(c1cnccc1C(F)(F)F)N(C)C(=O)CC1Cc2ccccc2C1 (stereo not shown) [I-191],98%
2,CC(C)C(c1cnccc1C(F)(F)F)N(C)S(=O)(=O)c1ccc(F)cc1F (racemic) [I-127],90%

# Tested on: green foxtail
# Test: as above
# Assay type: in vivo, Setaria viridis L.
# Settings: active ingredient 500 g/ha, observed 20th to 28th day
# In short: as §2
row,SMILES,Growth controlling degree (%) Green foxtail
1,CC(C)C(c1cnccc1C(F)(F)F)N(C)C(=O)CC1Cc2ccccc2C1 (stereo not shown) [I-191],100%
2,CC(C)C(c1cnccc1C(F)(F)F)N(C)S(=O)(=O)c1ccc(F)cc1F (racemic) [I-127],100%

# Tested on: redroot pigweed
# Test: as above
# Assay type: in vivo, Amaranthus retroflexus L.
# Settings: active ingredient 500 g/ha, observed 20th to 28th day
# In short: as §2
row,SMILES,Growth controlling degree (%) Redroot pigweed
1,CC(C)C(c1cnccc1C(F)(F)F)N(C)C(=O)CC1Cc2ccccc2C1 (stereo not shown) [I-191],50%
2,CC(C)C(c1cnccc1C(F)(F)F)N(C)S(=O)(=O)c1ccc(F)cc1F (racemic) [I-127],60%

# Tested on: prickly sida
# Test: as above
# Assay type: in vivo, Sida spinosa L.
# Settings: active ingredient 500 g/ha, observed 20th to 28th day
# In short: as §2
row,SMILES,Growth controlling degree (%) Prickly sida
1,CC(C)C(c1cnccc1C(F)(F)F)N(C)C(=O)CC1Cc2ccccc2C1 (stereo not shown) [I-191],10%
2,CC(C)C(c1cnccc1C(F)(F)F)N(C)S(=O)(=O)c1ccc(F)cc1F (racemic) [I-127],50%

# Tested on: velvetleaf
# Test: as above
# Assay type: in vivo, Abutilon theophrasti MEDIC.
# Settings: active ingredient 500 g/ha, observed 20th to 28th day
# In short: as §2
row,SMILES,Growth controlling degree (%) Velvetleaf
1,CC(C)C(c1cnccc1C(F)(F)F)N(C)C(=O)CC1Cc2ccccc2C1 (stereo not shown) [I-191],10%
2,CC(C)C(c1cnccc1C(F)(F)F)N(C)S(=O)(=O)c1ccc(F)cc1F (racemic) [I-127],40%

# Tested on: rice
# Test: as above
# Assay type: in vivo, Oryza sativa L.
# Settings: active ingredient 500 g/ha, observed 20th to 28th day
# In short: as §2
row,SMILES,Growth controlling degree (%) Rice
1,CC(C)C(c1cnccc1C(F)(F)F)N(C)C(=O)CC1Cc2ccccc2C1 (stereo not shown) [I-191],20%
2,CC(C)C(c1cnccc1C(F)(F)F)N(C)S(=O)(=O)c1ccc(F)cc1F (racemic) [I-127],20%

# Tested on: wheat
# Test: as above
# Assay type: in vivo, Triticum spp.
# Settings: active ingredient 500 g/ha, observed 20th to 28th day
# In short: as §2
row,SMILES,Growth controlling degree (%) wheat
1,CC(C)C(c1cnccc1C(F)(F)F)N(C)C(=O)CC1Cc2ccccc2C1 (stereo not shown) [I-191],20%
2,CC(C)C(c1cnccc1C(F)(F)F)N(C)S(=O)(=O)c1ccc(F)cc1F (racemic) [I-127],30%

# Tested on: corn
# Test: as above
# Assay type: in vivo, Zea mays L.
# Settings: active ingredient 500 g/ha, observed 20th to 28th day
# In short: as §2
row,SMILES,Growth controlling degree (%) Corn
1,CC(C)C(c1cnccc1C(F)(F)F)N(C)C(=O)CC1Cc2ccccc2C1 (stereo not shown) [I-191],40%
2,CC(C)C(c1cnccc1C(F)(F)F)N(C)S(=O)(=O)c1ccc(F)cc1F (racemic) [I-127],10%

# Tested on: soybean
# Test: as above
# Assay type: in vivo, Glycine max Merr.
# Settings: active ingredient 500 g/ha, observed 20th to 28th day
# In short: as §2
row,SMILES,Growth controlling degree (%) Soyabean
1,CC(C)C(c1cnccc1C(F)(F)F)N(C)C(=O)CC1Cc2ccccc2C1 (stereo not shown) [I-191],30%
2,CC(C)C(c1cnccc1C(F)(F)F)N(C)S(=O)(=O)c1ccc(F)cc1F (racemic) [I-127],10%

# Tested on: barnyardgrass
# Test: Test Example 3: paddy pot test, application under submerged conditions
# Assay type: in vivo, Echinochloa crus-galli L.
# Settings: active ingredient 250 g/ha; submerged application at 0.5 leaf stage; visually observed 14 days after application; 0 = non-treated, 100 = complete kill
# In short: (§3)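 Barnyardgrass and japanese bulrush sown in flooded paddy soil in greenhouse pots, japanese ribbon wapato tubers planted 1–2 days later; water depth kept at 3–4 cm. Diluted wettable powder or emulsifiable concentrate applied into water at 0.5-leaf or primary-leaf stage at set active-ingredient doses. Growth control scored visually at 14 days, 0 (untreated) to 100% (complete kill).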
row,SMILES,Growth controlling degree (%) Barnyardgrass
1,CC(C)C(c1cnccc1C(F)(F)F)N(C)S(=O)(=O)c1ccc(F)cc1F (racemic) [I-127],100%

# Same assay, conditions: active ingredient 500 g/ha; submerged application at 0.5 leaf stage; visually observed 14 days after application; 0 = non-treated, 100 = complete kill
row,SMILES,Growth controlling degree (%) Barnyardgrass
1,CC(C)C(c1cnccc1C(F)(F)F)N(C)C(=O)CC1Cc2ccccc2C1 (stereo not shown) [I-191],100%

# Tested on: japanese bulrush
# Test: as above
# Assay type: in vivo, Scirpus juncoides
# Settings: active ingredient 250 g/ha; submerged application at 0.5 leaf stage; visually observed 14 days after application; 0 = non-treated, 100 = complete kill
# In short: as §3
row,SMILES,Growth controlling degree (%) Japanese bulrush
1,CC(C)C(c1cnccc1C(F)(F)F)N(C)S(=O)(=O)c1ccc(F)cc1F (racemic) [I-127],70%

# Same assay, conditions: active ingredient 500 g/ha; submerged application at 0.5 leaf stage; visually observed 14 days after application; 0 = non-treated, 100 = complete kill
row,SMILES,Growth controlling degree (%) Japanese bulrush
1,CC(C)C(c1cnccc1C(F)(F)F)N(C)C(=O)CC1Cc2ccccc2C1 (stereo not shown) [I-191],90%

# Tested on: rice (var. Nihonbare)
# Test: Test Example 3: paddy pot test, transplanted rice
# Assay type: in vivo, Oryza sativa L.
# Settings: active ingredient 250 g/ha, applied 4th day after transplantation, visually observed 21st day after application, 0 = non-treated, 100 = complete kill
# In short: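 Rice (var. Nihonbare) at 2 leaf stage transplanted 3 cm deep into puddled paddy soil under 3–4 cm flooding; on day 4 after transplanting, diluted wettable powder or emulsifiable concentrate applied by pipette under submerged conditions at a set active-ingredient dose. Growth scored visually 21 days after application, 0 (untreated) to 100 (complete kill) %.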
row,SMILES,Growth controlling degree (%) Rice
1,CC(C)C(c1cnccc1C(F)(F)F)N(C)S(=O)(=O)c1ccc(F)cc1F (racemic) [I-127],0%

# Same assay, conditions: active ingredient 500 g/ha, applied 4th day after transplantation, visually observed 21st day after application, 0 = non-treated, 100 = complete kill
row,SMILES,Growth controlling degree (%) Rice
1,CC(C)C(c1cnccc1C(F)(F)F)N(C)C(=O)CC1Cc2ccccc2C1 (stereo not shown) [I-191],20%
